The values that follow come from article PMC3072408 (PLoS ONE, 2011).

One may read the Kd as the constant that tells how readily two partners part at equilibrium. As usually defined, the stoichiometry N is a count of units in the complex or per binding partner.

The target of data set [1] is T1, ASAL (Allium sativum, UniProt P83886).
T1 construct: gene LECASAL; native 25-kDa homodimer
T1 sequence (P83886 31-140): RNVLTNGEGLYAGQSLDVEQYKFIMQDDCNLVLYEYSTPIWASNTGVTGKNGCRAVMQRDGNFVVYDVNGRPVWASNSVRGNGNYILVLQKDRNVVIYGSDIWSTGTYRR
It is filed as binding. As to conditions: read-out: Dissociation constant (Kd).

For data set [2], the target named is T2, mASAL (Allium sativum, UniProt P83886, G129D/INS129NSNN).
T2 construct: gene LECASAL
In words: biochemical.
Protocol: Dissociation Constant (Kd) of mannose-bound complex using fluorescence spectroscopy
mASAL and ASAL were separately incubated at 25°C on a Hitachi F-7000 spectrofluorimeter using a Sigma cuvette (volume: 1 ml; pathlength: 1 cm). The solutions were titrated with 10 mM mannose in phosphate buffer (pH 7.2) by adding a small aliquot at a time. Following each addition, the solution was stirred using a magnetic stirrer for 1 min and the fluorescence emission spectrum was recorded between 300 and 400 nm using 295 nm as the excitation wavelength. The excitation and emission band passes were each 5 nm. […] The equation for single-site ligand binding measured through changes in the spectroscopic signal [20] is given by [drawing 1] (1) where ΔF represents the increase or decrease in fluorescence intensity at a given concentration of the ligand, K d is the dissociation constant, and A = K dΔ Fmax. We used equation (1) to calculate the dissociation constant (K d) for binding of mannose, glucose and NAG to mASAL and ASAL.

For data set [3], the system named is rabbit erythrocytes. The data set can be described thus: Hemagglutination assay. To be noted: 50 to 6.25 µg/ml, 2% rabbit erythrocytes, 1 hour at 37°C. It is filed as cell-based. As to the method: Blood was collected from the rabbit into a syringe pre-filled with 500-µl 0.9% NaCl solution and the blood was immediately transferred to a culture tube pre-filled with 0.9% saline. Subsequently, the erythrocyte solution was prepared by repeated washing with 0.9% saline and spun at 2500 g for 10 minutes at 4°C. After each cycle, the supernatant was carefully removed. […] The erythrocytes were resuspended in 0.9% saline as a 2% (3.5×10^8 cells/ml) cell suspension. Hemagglutination activity of the purified mASAL and /or ASAL was assayed in a 96-well microtiter U-plate according to a 2-fold serial dilution procedure (50, 25, 12.5, 6.25 µg/ml). The samples were diluted with PBS (137 mM NaCl, 2.7 mM KCl, 10 mM Na2HPO4, 1.8 mM KH2PO4; pH 7.4) at which point 50 µl of protein from each dilution was mixed with 50 µl of a 2% suspension of rabbit erythrocytes.

The test system of data set [4] is F. oxysporum. To be noted: 4 µg protein, 40 hours at 25°C.
For data set [5], the system named is A. brassicicola. To be noted: 4 µg protein, 40 hours at 25°C.
The subject of data set [6] is R. solani hyphae. The data set can be described thus: Immunolocalization assay with anti-ASAL antibody. It is filed as cell-based, Rhizoctonia solani. As to conditions: 4 µg protein, 40 hours at 25°C.
The subject of data set [7] is Lipaphis erysimi. In words: Insect bioassay with artificial diet. It is filed as in vivo. To be noted: second instar nymphs, survival recorded for 72 h, Probit analysis. As to the method:
Insect bioassays were conducted using an artificial diet [9]–[11]. Twenty second instar nymphs of Lipaphis erysimi were used in multiple sets. Polycarbonate petriplates (perforated for air passage at the bottom) were used as a bioassay cage. Nymphs were released into the plates, and the upper edges of the plates were covered with fully stretched parafilm. A modified synthetic diet mixture of 200 µl, supplemented with different concentrations of ASAL and mASAL (5, 10, 15, 20, 25 µg/ml), was dispensed on the stretched parafilm membrane. Another Parafilm membrane was stretched onto this in order to form a pouch. For control plates, 20-mM TrisCl (pH 7.4) was added to the artificial diet instead of experimental proteins. For another set of control experiments, aphids were fed with only 20 mM TrisCl (pH 7.4) without the artificial diet. Each set of experiments for each dose was repeated four times. Data regarding the numbers of nymphs surviving were recorded at 12-h intervals for 72 h. The LC50 values for the toxicity against mustard aphids were determined by Probit analysis ( Table 2 ).

Data set [8] concerns R. solani. To be noted: 4 µg protein, 40 hours at 25°C.
For data set [9] the following is noted: Man9GlcNAc2Asn, at 25°C; cited from earlier work.
Data set [10] deals with the molecule itself. In words: SEC; Biosep-SEC-S-2000 column, 0.1 M sodium phosphate pH 6.8, 2 ml/min; native ASAL as control; data not shown. For orientation: Size exclusion chromatography separates by hydrodynamic size, large species first.

Entries after “also recorded” stand apart in the source; their conditions may differ.

For `OC[C@H]1OC(O)[C@H](O)[C@@H](O)[C@@H]1O` (stereo partly drawn) [D-glucose], the Kd in data set [1] is 140 nM; in [2], 160 nM.
The matching figures for `OC[C@H]1OC(O)[C@@H](O)[C@@H](O)[C@@H]1O` (stereo partly drawn) [Mannose, D-mannose]: 60 nM and 120 nM.
For `CC(=O)N[C@H]1C(O)O[C@H](CO)[C@@H](O)[C@@H]1O` (some centres unmarked) [NAG, N-acetyl glucosamine], in that order: 300 nM and 110 nM.
On to Allium sativum leaf agglutinin [ASAL], for which the hemagglutination activity result in data set [3] is “agglutinated cells form a carpet”. Further, the “propidium iodide uptake (fluorescence, membrane permeabilization)” value in [4], in data set [5] and in data set [8] was “excluded propidium iodide” each time. In data set [6], the “binding to fungal membrane (FITC green fluorescence)” value is listed as “absence of any signal; also recorded: no signals were generated”. For the same molecule, the LC50 value in data set [7] was 20.7 µg/mL. Also, the “binding affinity Ka” value in [9] was 1.2e+06 M⁻¹.

B1: Allium sativum leaf agglutinin (natural protein)
chain: RNLLTNGEGLYAGQSLDVEQYKFIMQDDCNLVLYEYSTPIWASNTGVTGKNGCRAVMQRDGNFVVYDVNGRPVWASNSVRGNGNYILVLQKDRNVVIYGSDIWSTGT
For the molecule B1, in data set [10], the “stoichiometry N” value was determined as 2.
